Measured values as given in patent publication US20020137929A1, “1 - (3-heterocyclylphenyl) isothiourea, -isourea, -guanidine and -amidine herbicidal agents” (Intellectual Property Department, BASF Aktiengesellschaft, priority 1998, published 2002).

Columns and labels:
AMBEL (Ragweed, Common) = test: Preemergence herbicidal evaluation; format: in vivo, Ambrosia artemisifolia; conditions: rated 4-5 weeks after treatment; for AMBEL rating: preemergence, 0-9 scale
Outline: (§1)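 Seeds were planted in potting soil in cups, then sprayed preemergence with the test compound in aqueous acetone at about 0.0156 to 0.500 kg per hectare. Cups were kept under greenhouse conditions and visually rated 4–5 weeks after treatment on a 0–9 scale against an untreated control.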

[1] = test system: GLXMAW (Soybean, Williams); test: Preemergence herbicidal evaluation; format: in vivo, Glycine max, (L.) Merr. cv Williams; conditions: rated 4-5 weeks after treatment; for GLXMAW rating: preemergence, 0-9 scale
Outline: as §1

MOOVA (Monochoria) = test: Postemergence weed control under flooded paddy conditions; format: in vivo, Monochoria vaginalis; conditions: postemergence weeds, rated 3 to 4 weeks after treatment
Outline: (§2)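 Weeds 3 to 5 cm tall and rice seedlings at the 1.5 to 2.5 leaf stage were flooded, with water held 1.5 to 3 cm above the soil. Compounds in 50/50 v/v aqueous/acetone went into the flood water at about 0.0313 to 0.500 kg/ha. Visual 0-9 ratings versus control were made 3 to 4 weeks later.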

ABUTH (Velvetleaf) = test: Preemergence herbicidal evaluation; format: in vivo, Abutilon theophrasti; conditions: rated 4-5 weeks after treatment; for ABUTH rating: preemergence, 0-9 scale
Outline: as §1

[2] = test system: SAGPY (Arrowhead (Pygmaea)); test: Postemergence weed control under flooded paddy conditions; format: in vivo, Sagittaria pygmaea; conditions: postemergence weeds, rated 3 to 4 weeks after treatment
Outline: as §2

ZEAMX (Corn, Field) = test: Postemergence herbicidal evaluation; format: in vivo, Zea mays; conditions: postemergence
Outline: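 Two-week-old seedlings sprayed with compound in 50/50 acetone/water plus 0.5% TWEEN 20, at about 0.0156 to 0.500 kg/ha, nozzle at 40 psi. Kept in greenhouse; rated visually 4-5 weeks after treatment on a 0-9 scale versus control, repeat tests averaged.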

## C=CCN1C(=O)C(CC(=O)OC(C)C)SC1=Nc1cc(-n2c(=O)cc(C(F)(F)F)n(C)c2=O)c(F)cc1Cl (centres unmarked) [Compound 66, Isopropyl 3-allyl-2-{{2-chloro-5-[3,6-dihydro-3-methyl-2,6-dioxo-4-(trifluoromethyl)-1(2H)-pyrimidinyl]-4-fluorophenyl}imino}-4-oxo-5-thiazolidineacetate]
AMBEL (Ragweed, Common); rate 0.0156 kg/ha
  Preemergence herbicidal rating AMBEL: 0.5
AMBEL (Ragweed, Common); rate 0.0313 kg/ha
  Preemergence herbicidal rating AMBEL: 1.0
AMBEL (Ragweed, Common); rate 0.0625 kg/ha
  Preemergence herbicidal rating AMBEL: 3.0
AMBEL (Ragweed, Common); rate 0.1250 kg/ha
  Preemergence herbicidal rating AMBEL: 9.0
AMBEL (Ragweed, Common); rate 0.2500 kg/ha
  Preemergence herbicidal rating AMBEL: 9.0
AMBEL (Ragweed, Common); rate 0.5000 kg/ha
  Preemergence herbicidal rating AMBEL: 9.0
[1]; rate 0.0156 kg/ha
  Preemergence herbicidal rating GLXMAW: 0.0
[1]; rate 0.0313 kg/ha
  Preemergence herbicidal rating GLXMAW: 0.0
[1]; rate 0.0625 kg/ha
  Preemergence herbicidal rating GLXMAW: 0.5
[1]; rate 0.1250 kg/ha
  Preemergence herbicidal rating GLXMAW: 0.5
[1]; rate 0.2500 kg/ha
  Preemergence herbicidal rating GLXMAW: 4.5
[1]; rate 0.5000 kg/ha
  Preemergence herbicidal rating GLXMAW: 9.0
MOOVA (Monochoria); Rate 0.0313 kg/ha
  Herbicidal rating MOOVA: 9.0
MOOVA (Monochoria); Rate 0.0625 kg/ha
  Herbicidal rating MOOVA: 9.0
MOOVA (Monochoria); Rate 0.1250 kg/ha
  Herbicidal rating MOOVA: 9.0
MOOVA (Monochoria); Rate 0.2500 kg/ha
  Herbicidal rating MOOVA: 9.0
ABUTH (Velvetleaf); rate 0.0156 kg/ha
  Preemergence herbicidal rating ABUTH: 5.0
ABUTH (Velvetleaf); rate 0.0313 kg/ha
  Preemergence herbicidal rating ABUTH: 8.0
ABUTH (Velvetleaf); rate 0.0625 kg/ha
  Preemergence herbicidal rating ABUTH: 9.0
ABUTH (Velvetleaf); rate 0.1250 kg/ha
  Preemergence herbicidal rating ABUTH: 9.0
ABUTH (Velvetleaf); rate 0.2500 kg/ha
  Preemergence herbicidal rating ABUTH: 9.0
ABUTH (Velvetleaf); rate 0.5000 kg/ha
  Preemergence herbicidal rating ABUTH: 9.0
[2]; Rate 0.0313 kg/ha
  Herbicidal rating SAGPY: 3.0
[2]; Rate 0.0625 kg/ha
  Herbicidal rating SAGPY: 4.0
[2]; Rate 0.1250 kg/ha
  Herbicidal rating SAGPY: 4.0
[2]; Rate 0.2500 kg/ha
  Herbicidal rating SAGPY: 4.0
ZEAMX (Corn, Field); rate 0.0158 kg/ha
  ZEAMX herbicidal rating: 7.0
ZEAMX (Corn, Field); rate 0.0313 kg/ha
  ZEAMX herbicidal rating: 8.5
ZEAMX (Corn, Field); rate 0.0625 kg/ha
  ZEAMX herbicidal rating: 9.0
ZEAMX (Corn, Field); rate 0.1250 kg/ha
  ZEAMX herbicidal rating: 9.0

## CN1C(=O)C(CC(N)=O)SC1=Nc1cc(-n2c(=O)cc(C(F)(F)F)n(C)c2=O)c(F)cc1Cl (centres unmarked) [Compound 92, 2-{{2-Chloro-5-[3,6-dihydro-3-methyl-2,6-dioxo-4-(trifluoromethyl)-1(2H)-pyrimidinyl]-4-fluorophenyl}imino}-3-methyl-4-oxo-5-thiazolidineacetamide]
AMBEL (Ragweed, Common); 0.0156 kg/ha
  AMBEL rating: 0.0
AMBEL (Ragweed, Common); 0.0313 kg/ha
  AMBEL rating: 0.0
AMBEL (Ragweed, Common); 0.0625 kg/ha
  AMBEL rating: 0.0
AMBEL (Ragweed, Common); 0.1250 kg/ha
  AMBEL rating: 5.0
AMBEL (Ragweed, Common); 0.2500 kg/ha
  AMBEL rating: 9.0
[1]; 0.0156 kg/ha
  GLXMAW rating: 0.0
[1]; 0.0313 kg/ha
  GLXMAW rating: 0.0
[1]; 0.0625 kg/ha
  GLXMAW rating: 0.0
[1]; 0.1250 kg/ha
  GLXMAW rating: 1.0
[1]; 0.2500 kg/ha
  GLXMAW rating: 5.0
MOOVA (Monochoria); Rate 0.0313 kg/ha
  Herbicidal rating MOOVA: 9.0
MOOVA (Monochoria); Rate 0.0625 kg/ha
  Herbicidal rating MOOVA: 9.0
MOOVA (Monochoria); Rate 0.1250 kg/ha
  Herbicidal rating MOOVA: 9.0
MOOVA (Monochoria); Rate 0.2500 kg/ha
  Herbicidal rating MOOVA: 9.0
ABUTH (Velvetleaf); 0.0156 kg/ha
  ABUTH rating: 0.0
ABUTH (Velvetleaf); 0.0313 kg/ha
  ABUTH rating: 3.0
ABUTH (Velvetleaf); 0.0625 kg/ha
  ABUTH rating: 9.0
ABUTH (Velvetleaf); 0.1250 kg/ha
  ABUTH rating: 9.0
ABUTH (Velvetleaf); 0.2500 kg/ha
  ABUTH rating: 9.0
[2]; Rate 0.0313 kg/ha
  Herbicidal rating SAGPY: 0.0
[2]; Rate 0.0625 kg/ha
  Herbicidal rating SAGPY: 0.0
[2]; Rate 0.1250 kg/ha
  Herbicidal rating SAGPY: 4.0
[2]; Rate 0.2500 kg/ha
  Herbicidal rating SAGPY: 9.0
ZEAMX (Corn, Field); rate 0.0158 kg/ha
  ZEAMX herbicidal rating: 6.0
ZEAMX (Corn, Field); rate 0.0315 kg/ha
  ZEAMX herbicidal rating: 7.5
ZEAMX (Corn, Field); rate 0.0630 kg/ha
  ZEAMX herbicidal rating: 8.0
